Tests used:
[1] = tested on: neonatal mouse fibroblasts; assay: Tyk2 small molecule inhibitors: reprogramming of neonatal mouse fibroblasts into cardiomyocytes (MT+SB431542); format: cell-based; details: for beating cardiomyocytes: 2 uM SB431542; for cTnI and a-actinin positive cells: 2 uM SB431542, Tyk2 inhibitor 1, 2, 5 and 10 uM
Protocol: Neonatal suckling mice within 24 h were ordered from Vital River. In an ultraclean bench, heart tissue was taken, cut with sterilized surgical instruments, added with an appropriate amount of Type II Collagenase (1 mg/mL), digested at 37° C. constant temperature, after full digestion, washed twice with IMDM (20% FBS+1% PS+1% NEAA+1% Glu-Max) medium, resuspended with the medium, and plated in a 10 cm culture dish. After 24 h, fresh IMDM was added, and on the fourth day, CD90.2 (anti-Thy1+) was used for MACS separation. The sorted cells were plated in a 24-well plate 2-5×10^5/well), and infected with Fu-tet-o-Mef2c-T2A-Tbx5 virus and rtTA 24 h after plating. After 24 h, the medium was replaced with reprogramming medium, and replaced every 3 days. Beating cells could be seen at the 4th week, and a large number of cTnI and a-actinin could be seen by immunofluorescence staining.
10% FBS, 10% KSR, DMEM/M199 [4:1], 1% PS+1% NEAA+1% Glu-Max, 2 uM SB431542, Tyk2 inhibitor (BMS-986165 or PF-06826647), replaced every 3 days. Tyk2 inhibitor was used at 1, 2, 5 and 10 uM, and the optimal concentration is shown in the concentration gradient curve.

[2] = tested on: neonatal mouse skin fibroblasts (NSF) and mouse cardiac fibroblasts (nCFs); assay: Substitute for 2C: small molecules of the same signaling pathway (beating cells in GMT NSF, cTnT positive cells in MT nCF); format: cell-based; details: GMT NSF D18 beating, MT nCF four weeks cTnT; for replacement of SB431542 (beating cells, number of cTnT-positive cells): combined with Baricitinib; for replacement of Baricitinib (beating cells, number of cTnT-positive cells): combined with SB431542
Protocol: Specifically, at D-2 (day-2), Myh6-mCherry neonatal mouse skin fibroblasts (NSF) were plated; at D-1 (day-1),the cells were infected with three lentiviruses expressing Gata4, Mef2c and Tbx5 (GMT), respectively; at D0 (day 0), the media were replaced with reprogramming media added with small molecules, and replaced every 3-4 days; andat D18, beating cells were counted. In addition, at D-2, WT mouse cardiac fibroblasts (nCFs) were plated, and residual cardiomyocytes were removed with CD90.2 MACS; at D-1, the cells were infected with virus expressing Mef2c+Tbx5 (MT); at D0, the media were replaced with reprogramming media added with small molecules, and replaced every 3 days; and after four weeks, cTnT positive cells were counted.2C was used as a positive control.
SB431542 is an inhibitor of TGFβ signaling pathway, and this example analyzed whether other small molecules of this signaling pathway could be combined with Baricitinib, including RepSox, GW788388, SD-208, LY364947, Y-27632, LDN-193189, LY2109761 and Galunisertib. Baricitinib is an inhibitor of Jak pathway, and this example analyzed whether other small molecules of this signaling pathway could be combined with SB431542, including Filgotinib, WP1066, Gandotinib, Ruxolitinib and AZD1480. […] It can be seen that the TGFβ signaling pathway is important for reprogramming into cardiomyocytes; however, at the same time, Baricitinib cannot be replaced by most other compounds targeting Jak-Stat.

[3] = tested on: neonatal mouse fibroblasts; assay: Cardiomyocyte reprogramming with Tyk2 knockdown/knockout plus MT and C1; format: cell-based; details: combined with transcription factor MT and C1
Text: (§1) Briefly, shRNAs targeting Tyk2 gene (shTyk2#1, shTyk2#2, shTyk2#3, shTyk2#4, shTyk2#5) were designed, introduced into neonatal mouse fibroblasts together with transcription factor combination MT, and then induced in reprogramming medium containing C1 to test the efficiency of reprogramming into cardiomyocyte-like cells.
To further confirm the role of specific inhibition of Tyk2 in cardiomyocyte reprogramming, the inventors further designed five different sgRNAs targeting Tyk2 gene, knocked out the Tyk2 gene of neonatal mouse fibroblasts using CRISPR technique, and tested the efficiency of cardiomyocyte reprogramming in the presence of transcription factor MT and C1, respectively. sgNT was a control for non-targeted Tyk2.

[4] = tested on: Tyk2 gene; assay: Knockdown effect of shRNAs on Tyk2 expression; format: cell-based, mouse; details: FIG. 21C
Text: as §1

[5] = tested on: WT mouse cardiac fibroblasts (nCFs); assay: Replacement of Baricitinib in combination with SB431542 on the basis of MT transduction; format: cell-based; details: three weeks
Text: In addition, some small anti-inflammatory molecules have been reported to increase reprogramming-induced cardiomyocyte efficiency, such as Dexamethasone or Nabumetone.

[6] = tested on: Myh6-mCherry neonatal mouse skin fibroblasts (NSF); assay: GMT-mediated reprogramming of Myh6-mCherry neonatal mouse skin fibroblasts into induced cardiomyocyte like cells (iCM); format: cell-based; details: for optimal action concentration: cTnT staining, titrated on 2 μM of the other small molecule of 2C
Protocol: Reprogramming steps: at d-2, plating cells; at d-1, infecting with virus; andat d0, removing virus-containing medium, and replacing with reprogramming medium. Beating cell count and immunofluorescence assay were performed after approximately 3 weeks.
iCM reprogramming medium: DMEM/M199 (4:1) supplemented with 10% KnockOut serum replacement (KSR), 10% FBS, 1% GlutaMAX, 1% MEM NEAA, 1% Pen Strep, 2 μg/ml Dox and small molecule mixture 2C (2 μM SB431542, 2 μM Baricitinib).
At D-2, 24-well plate was coated with 0.1% gelatin and then placed in a cell culture incubator at 37° C. for 30 min, then the gelatin was aspirated, and the 24-well plate was inoculated with 80,000 cells per well. At D-1, MEF medium containing 6 ng/μl polybrene was replaced, the cells were infected with FU-tet-o-Gata4, FU-tet-o-Mef2c, FU-tet-o-Tbx5, FUdeltaGW-rtTA, 200 μl unconcentrated virus per well per virus. At D0, the medium was replaced with iCM reprogramming medium, and replaced every 3-4 days.
Screening was performed on Myh6-mCherry neonatal mouse dermal fibroblasts. Small molecule library was screened simultaneously with transfection of three genes of GMT (Gata4, Mef2c and Tbx5) to quantify the effect of small molecules on reprogramming by observing the ratio and brightness of reporter genes, as shown in FIG. 1A. Specifically, at D-2 (day-2), Myh6-mCherry neonatal mouse skin fibroblasts (NSF) were plated; at D-1 (day-1), the cells were infected with three lentiviruses expressing Gata4, Mef2c and Tbx5 (GMT), respectively; and at D0 (day 0), the media were replaced with reprogramming media added with small molecules, and replaced every 3-4 days. After three weeks of induction, the number of Myh6-mCherry positive cells was observed and counted to screen for small molecules that promoted the induced cardiomyocyte like cells (iCM).
The optimal action concentration and optimal action time of 2C were then further investigated. […] First, the optimal action concentration of SB431542 was determined by cardiomyocyte marker cTnT staining after adding different concentrations of SB431542 based on 2 μM Baricitinib. […]

BMS-986165
beating cardiomyocytes [1]: could induce beating cardiomyocytes from fibroblasts | cTnI and a-actinin positive cells [1]: could induce a number of cardiac specific markers cTnI and a-actinin positive cells from fibroblasts

Cc1cccc(-c2nn3c(c2-c2ccnc4ccc(C(N)=O)cc24)CCC3)n1 [Galunisertib]
replacement of SB431542 (beating cells, number of cTnT-positive cells) [2]: could be effectively replaced by small molecules of the same signaling pathway

Cc1cc(Nc2cc(CN3CCOCC3)c3nc(C)c(Cc4ccc(Cl)cc4F)n3n2)n[nH]1 [Gandotinib]
replacement of Baricitinib (beating cells, number of cTnT-positive cells) [2]: only its structural analogue Ruxolitinib could be used for replacement

O=C(NC1CCOCC1)c1ccc(-c2cc(-c3c[nH]nc3-c3ccccn3)ccn2)cc1 [GW788388]
replacement of SB431542 (beating cells, number of cTnT-positive cells) [2]: could be effectively replaced by small molecules of the same signaling pathway

C[C@@H](N)[C@H]1CC[C@H](C(=O)Nc2ccncc2)CC1 [Y-27632]
replacement of SB431542 (beating cells, number of cTnT-positive cells) [2]: could be effectively replaced by small molecules of the same signaling pathway

c1ccc(-c2[nH]ncc2-c2ccnc3ccccc23)nc1 [LY364947]
replacement of SB431542 (beating cells, number of cTnT-positive cells) [2]: could be effectively replaced by small molecules of the same signaling pathway

shTyk2#1: shRNA targeting Tyk2 gene, SEQ ID NO: 1 (CCCATCTTCATTAGCTGGGAACTCGAGTTCCCAGCTAATGAAGATGGG)
efficiency of cardiomyocyte reprogramming (cTnI and a-actinin immunofluorescence) [3]: could achieve similar efficiency of cardiomyocyte reprogramming as small molecule combination 2C | knockdown of Tyk2 expression [4]: could knockdown the expression of Tyk2

shTyk2#3: shRNA targeting Tyk2 gene, SEQ ID NO: 3 (CCACTTTAAGAATGAGAGCTTCTCGAGAAGCTCTCATTCTTAAAGTGG)
efficiency of cardiomyocyte reprogramming (cTnI and a-actinin immunofluorescence) [3]: could achieve similar efficiency of cardiomyocyte reprogramming as small molecule combination 2C | knockdown of Tyk2 expression [4]: could knockdown the expression of Tyk2

Fc1ccc(Cl)cc1-c1nc(Nc2ccncc2)c2nccnc2n1 [SD-208]
replacement of SB431542 (beating cells, number of cTnT-positive cells) [2]: could be effectively replaced by small molecules of the same signaling pathway

COc1ccc2cc(CCC(C)=O)ccc2c1 [Nabumetone]
replacement of the effect of Baricitinib [5]: could not replace the effect of Baricitinib

Cc1cc(Nc2nc(N[C@@H](C)c3ncc(F)cn3)ncc2Cl)n[nH]1 [AZD1480]
replacement of Baricitinib (beating cells, number of cTnT-positive cells) [2]: only its structural analogue Ruxolitinib could be used for replacement

Cc1cccc(-c2[nH]ncc2-c2ccc3ncccc3n2)n1 [RepSox]
replacement of SB431542 (beating cells, number of cTnT-positive cells) [2]: could be effectively replaced by small molecules of the same signaling pathway

C[C@H](NC(=O)/C(C#N)=C/c1cccc(Br)n1)c1ccccc1 [WP1066]
replacement of Baricitinib (beating cells, number of cTnT-positive cells) [2]: only its structural analogue Ruxolitinib could be used for replacement

shTyk2#2: shRNA targeting Tyk2 gene, SEQ ID NO: 2 (CCCTTCATCAAGCTAAGTGATCTCGAGATCACTTAGCTTGATGAAGGG)
efficiency of cardiomyocyte reprogramming (cTnI and a-actinin immunofluorescence) [3]: could achieve similar efficiency of cardiomyocyte reprogramming as small molecule combination 2C | knockdown of Tyk2 expression [4]: could knockdown the expression of Tyk2

Cn1cc(-c2cn3nccc3c(-c3cnn([C@]4(CC#N)C[C@@H](C#N)C4)c3)n2)cn1 [PF-06826647]
beating cardiomyocytes [1]: could induce beating cardiomyocytes from fibroblasts | cTnI and a-actinin positive cells [1]: could induce a number of cardiac specific markers cTnI and a-actinin positive cells from fibroblasts

c1ccc(-c2nn3c(c2-c2ccnc4cc(OCCN5CCOCC5)ccc24)CCC3)nc1 [LY2109761]
replacement of SB431542 (beating cells, number of cTnT-positive cells) [2]: could be effectively replaced by small molecules of the same signaling pathway

c1ccc2c(-c3cnn4cc(-c5ccc(N6CCNCC6)cc5)cnc34)ccnc2c1 [LDN-193189]
replacement of SB431542 (beating cells, number of cTnT-positive cells) [2]: could be effectively replaced by small molecules of the same signaling pathway

O=C(Nc1nc2cccc(-c3ccc(CN4CCS(=O)(=O)CC4)cc3)n2n1)C1CC1 [Filgotinib]
replacement of Baricitinib (beating cells, number of cTnT-positive cells) [2]: only its structural analogue Ruxolitinib could be used for replacement

CCS(=O)(=O)N1CC(CC#N)(n2cc(-c3ncnc4[nH]ccc34)cn2)C1 [Baricitinib]
optimal action concentration [6]: 2 µM

NC(=O)c1ccc(-c2nc(-c3ccc4c(c3)OCO4)c(-c3ccccn3)[nH]2)cc1 [SB431542]
optimal action concentration [6]: 2 µM | efficiency of reprogramming induced cardiomyocytes (number of Myh6-mCherry positive cells) ([6]; three weeks of induction): increase the efficiency of reprogramming induced cardiomyocytes
